Data taken from the supplement of paper PMC10331698.
± gives the standard deviation of the averaged measurements.

Columns and labels:
Experiment in all cases: level (log10 ratio to DMSO vehicle control); higher = higher biomarker level / cell amount than vehicle control
Settings in all cases: in DMSO
[1] = compound: C=CC(=O)OCCC(F)(F)C(F)(F)C(F)(F)C(F)(F)F [2-(Perfluorobutyl)ethyl acrylate]
Description: (§1)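 BioMAP Diversity Plus panel of 12 human primary cell co-culture systems (3C, 4H, LPS, SAg, BT, BF4T, BE3C, CASM3C, HDF3CGF, KF3CT, MyoF, Mphg). Compounds were added 1 h before stimulation and left for 24 h (MyoF 48 h; BT 72 h for soluble read-outs or 6 d for IgG). Biomarkers were read by ELISA, cytotoxicity by SRB, PBMC viability and proliferation by Alamar Blue. Each well value was divided by the mean of 8 DMSO control wells on the same plate and log10 transformed; duplicate blinded samples were tested at 4 concentrations.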

Azathioprine = compound: Cn1cnc([N+](=O)[O-])c1Sc1ncnc2[nH]cnc12 [Azathioprine]
Description: as §1

Perfluorooctanamidine = compound: N=C(N)C(F)(F)C(F)(F)C(F)(F)C(F)(F)C(F)(F)C(F)(F)C(F)(F)F [Perfluorooctanamidine]
Description: as §1

[2] = compound: O=C(O)C(F)(F)C(F)(F)C(F)(F)C(F)(F)C(F)(F)C(F)(F)C(F)(F)C(F)(F)C(F)(F)C(F)(F)C(F)(F)C(F)(F)C(F)(F)F [Perfluorotetradecanoic acid]
Description: as §1

[3] = compound: O=C(O)C(F)(F)C(F)(F)C(F)(F)C(F)(F)C(F)(F)C(F)(F)C(F)(F)C(F)(F)Cl [9-Chloro-perfluorononanoic acid]
Description: as §1

[4] = compound: O=S(=O)(O)C(F)(F)C(F)(F)C(F)(F)C(F)(F)F [Perfluorobutanesulfonic acid]
Description: as §1

[5] = compound: OCC(F)(F)C(F)(F)C(F)(F)C(F)(F)C(F)(F)C(F)F [1H,1H,7H-Dodecafluoro-1-heptanol]
Description: as §1

Row | Test System | level (log10) ([1]; 6700 nM) | level (log10) ([1]; 20000 nM) | level (log10) ([1]; 60000 nM) | level (log10) (Azathioprine; 1400 nM) | level (log10) (Azathioprine; 4200 nM) | level (log10) (Azathioprine; 13000 nM) | level (log10) (Azathioprine; 38000 nM) | level (log10) (Perfluorooctanamidine; 6700 nM) | level (log10) (Perfluorooctanamidine; 20000 nM) | level (log10) (Perfluorooctanamidine; 60000 nM) | level (log10) ([2]; 6700 nM) | level (log10) ([2]; 20000 nM) | level (log10) ([3]; 6700 nM) | level (log10) ([3]; 20000 nM) | level (log10) ([4]; 6700 nM) | level (log10) ([4]; 20000 nM) | level (log10) ([4]; 60000 nM) | level (log10) ([5]; 6700 nM) | level (log10) ([5]; 20000 nM) | level (log10) ([5]; 60000 nM)
1 | BF4T:CCL26/Eotaxin-3 | -0.0005 ± 0.018 | -0.0295 ± 0.023 | -0.019 ± 0.02 | 0.0215 ± 0.059 | 0.025 ± 0.058 | 0.007 ± 0.014 | -0.0025 ± 0.032 | 0.0375 ± 0.044 | -0.0585 ± 0.026 | -0.106 | -0.074 ± 0.0057 | -0.057 ± 0.059 | -0.144 ± 0.016 | -0.27 ± 0.014 | -0.057 ± 0.09 | -0.014 ± 0.035 | -0.003 ± 0.047 | 0.0025 ± 0.043 | -0.0005 ± 0.036 | 0.013 ± 0.028
2 | BF4T:CCL2/MCP-1 | -0.009 ± 0.013 | -0.01 ± 0.0028 | -0.0325 ± 0.029 | 0.0185 ± 0.015 | 0.0025 ± 0.019 | -0.006 ± 0.011 | -0.021 ± 0.0099 | 0.031 ± 0.0099 | 0.025 ± 0.045 | 0.06 | 0.0095 ± 0.016 | 0.0045 ± 0.012 | -0.034 ± 0.028 | -0.0785 ± 0.044 | 0.028 ± 0.0014 | 0.026 ± 0.024 | 0.033 ± 0.018 | 0.022 ± 0.05 | 0.0085 ± 0.057 | 0.009 ± 0.02
3 | BF4T:CXCL8/IL-8 | -0.006 ± 0.023 | -0.0105 ± 0.025 | 0.005 ± 0.027 | -0.013 ± 0.011 | -0.0325 ± 0.0064 | -0.0455 ± 0.016 | -0.0405 ± 0.016 | 0.0025 ± 0.016 | 0.002 ± 0.034 | 0 | 0.0325 ± 0.012 | 0.0275 ± 0.028 | 0.112 ± 0.042 | 0.0875 ± 0.015 | -0.0205 ± 0.0064 | 0.006 ± 0.0057 | 0.0095 ± 0.013 | 0.016 ± 0.051 | 0.0355 ± 0.04 | 0.0205 ± 0.03
4 | LPS:CCL2/MCP-1 | -0.0075 ± 0.0035 | -0.02 ± 0.0085 | -0.0255 ± 0.029 | 0.019 ± 0.055 | 0.011 ± 0.0042 | 0.03 ± 0.023 | -0.01 ± 0.0014 | -0.0005 ± 0.021 | -0.003 ± 0.0028 | -0.023 | 0.013 ± 0.055 | 0.0055 ± 0.077 | 0.005 ± 0.038 | 0.006 ± 0.0028 | -0.0285 ± 0.057 | -0.021 ± 0.027 | -0.035 ± 0.0014 | 0.002 ± 0.0014 | -0.0125 ± 0.0078 | -0.0005 ± 0.018
5 | SAg:CD40 | -0.0225 ± 0.0064 | -0.0405 ± 0.0035 | -0.153 ± 0.018 | -0.0125 ± 0.042 | -0.0095 ± 0.019 | -0.055 ± 0.025 | -0.118 ± 0.033 | -0.0055 ± 0.0021 | 0.014 ± 0.023 | -0.093 | -0.0395 ± 0.069 | -0.081 ± 0.085 | -0.013 ± 0.033 | -0.024 ± 0.031 | -0.0075 ± 0.0064 | -0.024 ± 0.011 | -0.0445 ± 0.036 | 0.015 ± 0.0099 | 0 ± 0.018 | -0.0015 ± 0.005
6 | 3C:CD87/uPAR | 0.0065 ± 0.00071 | 0.0145 ± 0.005 | 0.004 ± 0.017 | 0.0255 ± 0.037 | 0.016 ± 0.033 | 0.0565 ± 0.018 | 0.044 ± 0.0071 | 0.0265 ± 0.059 | 0.0135 ± 0.028 | 0.042 | 0.032 ± 0.081 | 0.0405 ± 0.073 | -0.013 ± 0.017 | -0.011 ± 0.038 | -0.007 ± 0.027 | -0.0075 ± 0.00071 | -0.0235 ± 0.022 | 0.023 ± 0.0028 | 0.002 ± 0.0099 | -0.0045 ± 0.012
7 | BF4T:MMP-1 | -0.003 ± 0.044 | -0.003 ± 0.051 | 0.047 ± 0.031 | 0 ± 0.014 | -0.001 ± 0.0042 | -0.003 ± 0.0042 | 0.019 ± 0.025 | 0.015 ± 0.02 | 0.006 ± 0.024 | 0.092 | 0.0015 ± 0.00071 | 0.013 ± 0.0028 | -0.0115 ± 0.0078 | 0.0245 ± 0.0064 | 0.0035 ± 0.0064 | -0.009 ± 0.013 | -0.0045 ± 0.00071 | 0.0095 ± 0.04 | 0.0145 ± 0.037 | 0.0245 ± 0.0092
8 | BF4T:uPA | -0.008 ± 0.028 | -0.009 ± 0.02 | -0.022 ± 0.03 | 0 ± 0.0099 | -0.008 ± 0.0042 | -0.033 ± 0.0028 | -0.026 ± 0.0099 | -0.0185 ± 0.005 | -0.0225 ± 0.011 | 0.05 | 0.0075 ± 0.0078 | 0.017 ± 0.0028 | -0.0045 ± 0.012 | -0.01 ± 0.0071 | -0.026 ± 0.02 | 0.006 ± 0.0014 | -0.014 ± 0.027 | -0.0125 ± 0.019 | -0.0145 ± 0.0021 | -0.002 ± 0.0014
9 | 3C:HLA-DR | 0.035 ± 0.013 | 0.0285 ± 0.0035 | -0.046 ± 0.058 | 0.006 ± 0.013 | -0.001 ± 0.021 | 0.005 ± 0.048 | 0.005 ± 0.042 | 0.0025 ± 0.016 | -0.0295 ± 0.0064 | -0.035 | -0.028 ± 0.03 | 0.0025 ± 0.037 | -0.0105 ± 0.0078 | 0.004 ± 0.021 | -0.0015 ± 0.015 | -0.007 ± 0.0057 | -0.006 ± 0.013 | 0.008 ± 0.018 | -0.0055 ± 0.016 | -0.0105 ± 0.013
10 | SAg:CD62E/E-Selectin | -0.0185 ± 0.012 | -0.1 ± 0.016 | -0.625 ± 0.068 | -0.007 ± 0.013 | -0.0485 ± 0.023 | -0.07 ± 0.027 | -0.284 ± 0.018 | 0.004 ± 0.0014 | 0.0265 ± 0.00071 | -0.049 | 0 ± 0.0028 | 0.019 ± 0.0028 | -0.017 ± 0.0042 | 0.017 ± 0.014 | -0.0045 ± 0.005 | -0.008 ± 0.0085 | -0.001 ± 0.024 | -0.0075 ± 0.0021 | -0.0205 ± 0.013 | -0.02 ± 0.0057
11 | BE3C:CXCL11/I-TAC | 0.0035 ± 0.00071 | -0.0065 ± 0.012 | -0.018 ± 0.0028 | -0.0205 ± 0.035 | 0.008 ± 0.0028 | 0.01 ± 0.031 | 0.025 ± 0.051 | -0.0055 ± 0.0078 | -0.014 ± 0.016 | -0.014 | -0.073 ± 0.052 | -0.0135 ± 0.071 | 0.0515 ± 0.005 | -0.161 ± 0.032 | 0.0115 ± 0.012 | 0.0065 ± 0.00071 | 0.007 ± 0.0071 | 0.003 ± 0.02 | 0.0115 ± 0.012 | 0.007 ± 0.021
12 | 3C:SRB | 0.0005 ± 0.021 | 0.0035 ± 0.0092 | -0.0345 ± 0.0078 | -0.006 ± 0.0014 | -0.016 ± 0.0071 | -0.0275 ± 0.005 | -0.0955 ± 0.019 | 0.008 ± 0.016 | 0.0195 ± 0.019 | -0.054 | -0.015 ± 0.0028 | -0.0165 ± 0.012 | -0.0005 ± 0.005 | -0.0165 ± 0.0035 | 0.004 ± 0.0099 | -0.0095 ± 0.0035 | -0.021 ± 0.0042 | -0.005 ± 0.0071 | -0.006 ± 0.0071 | -0.0025 ± 0.00071
13 | SAg:SRB | 0.009 ± 0.0071 | 0.0115 ± 0.0092 | -0.0175 ± 0.028 | 0.002 ± 0.0057 | 0.0045 ± 0.013 | -0.009 ± 0.0042 | -0.0205 ± 0.026 | -0.0025 ± 0.0078 | 0.0025 ± 0.018 | -0.084 | -0.0025 ± 0.013 | -0.008 ± 0.024 | -0.003 ± 0.0099 | -0.0105 ± 0.005 | 0.0005 ± 0.0092 | -0.0085 ± 0.0092 | -0.0055 ± 0.013 | -0.014 ± 0.017 | -0.0105 ± 0.028 | -0.013 ± 0.011
14 | SAg:CXCL8/IL-8 | -0.029 ± 0.0099 | -0.103 ± 0.013 | -0.31 ± 0.064 | 0.022 ± 0.1 | -0.038 ± 0.061 | -0.13 ± 0.021 | -0.304 ± 0.013 | 0.005 ± 0.018 | 0.023 ± 0.0085 | -0.022 | -0.028 ± 0.051 | 0.0035 ± 0.069 | 0.0125 ± 0.0078 | 0.0445 ± 0.0092 | -0.0025 ± 0.023 | -0.001 ± 0.014 | 0.049 ± 0.037 | 0.025 ± 0.0028 | 0.008 ± 0.0071 | 0.037 ± 0.038
15 | BT:sTNF-alpha | -0.095 ± 0.1 | -0.192 ± 0.0085 | -0.767 ± 0.3 | 0.0225 ± 0.22 | -0.168 ± 0.11 | -0.167 ± 0.017 | -0.782 ± 0.077 | 0.102 ± 0.099 | 0.0345 ± 0.084 | 0.01 | 0.014 ± 0.11 | -0.082 ± 0.092 | 0.0075 ± 0.011 | 0.0075 ± 0.022 | 0.0295 ± 0.011 | 0.0515 ± 0.071 | 0.015 ± 0.011 | -0.01 ± 0.31 | 0.0815 ± 0.039 | -0.0155 ± 0.15
